Columns and labels:
[1] = test system: human ventricular trabeculae; assay: Action potential recording and pro-arrhythmic score analysis in human ventricular trabeculae (hVT);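 note: sharp microelectrode action potential recordings at 37°C in Tyrode-perfused trabeculae, 4 cumulative concentrations each applied 31 min, values averaged over last 30 APs, vehicle 0.1% DMSO as control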
[2] = human free (unbound) effective therapeutic plasma concentration used to calculate multiples; cited from earlier work
[3] = 1Hz, 1.6-FOLD free ETPC (0.006µM)
[4] = 1Hz, 17-FOLD free ETPC (0.006µM)
[5] = 1Hz, 167-FOLD free ETPC (0.006µM)
[6] = 1Hz, 1667-FOLD free ETPC (0.006µM)
[7] = 2Hz, 1.6-FOLD free ETPC (0.006µM)
[8] = 2Hz, 17-FOLD free ETPC (0.006µM)
[9] = 2Hz, 167-FOLD free ETPC (0.006µM)
[10] = 2Hz, 1667-FOLD free ETPC (0.006µM)

COc1cc2nc(N(C)CCCNC(=O)C3CCCO3)nc(N)c2cc1OC (stereo not shown) [ALFUZOSIN, Alfuzosin]
AMAX [1, 3]: 110
AMAX percentage change compared to vehicle control [1, 3]: 2%
APD30 [1, 3]: 163
APD30 percentage change compared to vehicle control [1, 3]: 4%
APD50 [1, 3]: 214
APD50 percentage change compared to vehicle control [1, 3]: 4%
APD90 [1, 3]: 287
APD90 percentage change compared to vehicle control [1, 3]: 3%
Alternans [1, 3]: 0.33
Alternans percentage change compared to vehicle control [1, 3]: -14%
Beat Escape [1, 3]: 0
Beat Escape percentage change compared to vehicle control [1, 3]: 0%
EADs [1, 3]: 0
EADs percentage change compared to vehicle control [1, 3]: 0%
ERP [1, 3]: 0.42
ERP percentage change compared to vehicle control [1, 3]: 0%
Max Dispersion [1, 3]: 2.40
Max Dispersion percentage change compared to vehicle control [1, 3]: 28%
RMP [1, 3]: -88
RMP percentage change compared to vehicle control [1, 3]: 3%
Refractoriness Escape [1, 3]: 0
Refractoriness Escape percentage change compared to vehicle control [1, 3]: 0%
STV [1, 3]: 0.30
STV percentage change compared to vehicle control [1, 3]: 9%
Triangulation [1, 3]: 123
Triangulation percentage change compared to vehicle control [1, 3]: -1%
AMAX [1, 4]: 110
AMAX percentage change compared to vehicle control [1, 4]: 1%
APD30 [1, 4]: 159
APD30 percentage change compared to vehicle control [1, 4]: 2%
APD50 [1, 4]: 209
APD50 percentage change compared to vehicle control [1, 4]: 2%
APD90 [1, 4]: 284
APD90 percentage change compared to vehicle control [1, 4]: 1%
Alternans [1, 4]: 0.34
Alternans percentage change compared to vehicle control [1, 4]: -13%
Beat Escape [1, 4]: 0
Beat Escape percentage change compared to vehicle control [1, 4]: 0%
EADs [1, 4]: 0
EADs percentage change compared to vehicle control [1, 4]: 0%
ERP [1, 4]: 0.44
ERP percentage change compared to vehicle control [1, 4]: 4%
Max Dispersion [1, 4]: 2.18
Max Dispersion percentage change compared to vehicle control [1, 4]: 16%
RMP [1, 4]: -88
RMP percentage change compared to vehicle control [1, 4]: 3%
Refractoriness Escape [1, 4]: 0
Refractoriness Escape percentage change compared to vehicle control [1, 4]: 0%
STV [1, 4]: 0.26
STV percentage change compared to vehicle control [1, 4]: -6%
Triangulation [1, 4]: 126
Triangulation percentage change compared to vehicle control [1, 4]: 1%
AMAX [1, 5]: 110
AMAX percentage change compared to vehicle control [1, 5]: 2%
APD30 [1, 5]: 161
APD30 percentage change compared to vehicle control [1, 5]: 3%
APD50 [1, 5]: 213
APD50 percentage change compared to vehicle control [1, 5]: 4%
APD90 [1, 5]: 291
APD90 percentage change compared to vehicle control [1, 5]: 4%
Alternans [1, 5]: 0.45
Alternans percentage change compared to vehicle control [1, 5]: 16%
Beat Escape [1, 5]: 0
Beat Escape percentage change compared to vehicle control [1, 5]: 0%
EADs [1, 5]: 0
EADs percentage change compared to vehicle control [1, 5]: 0%
ERP [1, 5]: 0.44
ERP percentage change compared to vehicle control [1, 5]: 4%
Max Dispersion [1, 5]: 2.43
Max Dispersion percentage change compared to vehicle control [1, 5]: 29%
RMP [1, 5]: -89
RMP percentage change compared to vehicle control [1, 5]: 4%
Refractoriness Escape [1, 5]: 0
Refractoriness Escape percentage change compared to vehicle control [1, 5]: 0%
STV [1, 5]: 0.29
STV percentage change compared to vehicle control [1, 5]: 7%
Triangulation [1, 5]: 130
Triangulation percentage change compared to vehicle control [1, 5]: 5%
AMAX [1, 6]: 109
AMAX percentage change compared to vehicle control [1, 6]: 1%
APD30 [1, 6]: 162
APD30 percentage change compared to vehicle control [1, 6]: 4%
APD50 [1, 6]: 222
APD50 percentage change compared to vehicle control [1, 6]: 9%
APD90 [1, 6]: 319
APD90 percentage change compared to vehicle control [1, 6]: 14%
Alternans [1, 6]: 0.72
Alternans percentage change compared to vehicle control [1, 6]: 86%
Beat Escape [1, 6]: 0
Beat Escape percentage change compared to vehicle control [1, 6]: 0%
EADs [1, 6]: 0
EADs percentage change compared to vehicle control [1, 6]: 0%
ERP [1, 6]: 0.47
ERP percentage change compared to vehicle control [1, 6]: 12%
Max Dispersion [1, 6]: 3.05
Max Dispersion percentage change compared to vehicle control [1, 6]: 63%
RMP [1, 6]: -88
RMP percentage change compared to vehicle control [1, 6]: 4%
Refractoriness Escape [1, 6]: 0
Refractoriness Escape percentage change compared to vehicle control [1, 6]: 0%
STV [1, 6]: 0.46
STV percentage change compared to vehicle control [1, 6]: 75%
Triangulation [1, 6]: 158
Triangulation percentage change compared to vehicle control [1, 6]: 28%
AMAX [1, 7]: 109
AMAX percentage change compared to vehicle control [1, 7]: 1%
APD30 [1, 7]: 120
APD30 percentage change compared to vehicle control [1, 7]: 2%
APD50 [1, 7]: 163
APD50 percentage change compared to vehicle control [1, 7]: 3%
APD90 [1, 7]: 234
APD90 percentage change compared to vehicle control [1, 7]: 2%
Alternans [1, 7]: 0.92
Alternans percentage change compared to vehicle control [1, 7]: 6%
Beat Escape [1, 7]: 0
Beat Escape percentage change compared to vehicle control [1, 7]: 0%
EADs [1, 7]: 0
EADs percentage change compared to vehicle control [1, 7]: 0%
ERP [1, 7]: 0.45
ERP percentage change compared to vehicle control [1, 7]: 1%
Max Dispersion [1, 7]: 3.95
Max Dispersion percentage change compared to vehicle control [1, 7]: 12%
RMP [1, 7]: -87
RMP percentage change compared to vehicle control [1, 7]: 2%
Refractoriness Escape [1, 7]: 0
Refractoriness Escape percentage change compared to vehicle control [1, 7]: 0%
STV [1, 7]: 0.64
Triangulation [1, 7]: 115
Triangulation percentage change compared to vehicle control [1, 7]: 1%
AMAX [1, 8]: 110
AMAX percentage change compared to vehicle control [1, 8]: 2%
APD30 [1, 8]: 116
APD30 percentage change compared to vehicle control [1, 8]: -1%
APD50 [1, 8]: 160
APD50 percentage change compared to vehicle control [1, 8]: 1%
APD90 [1, 8]: 233
APD90 percentage change compared to vehicle control [1, 8]: 1%
Alternans [1, 8]: 0.99
Alternans percentage change compared to vehicle control [1, 8]: 14%
Beat Escape [1, 8]: 0
Beat Escape percentage change compared to vehicle control [1, 8]: 0%
EADs [1, 8]: 0
EADs percentage change compared to vehicle control [1, 8]: 0%
ERP [1, 8]: 0.47
ERP percentage change compared to vehicle control [1, 8]: 4%
Max Dispersion [1, 8]: 3.93
Max Dispersion percentage change compared to vehicle control [1, 8]: 11%
RMP [1, 8]: -88
RMP percentage change compared to vehicle control [1, 8]: 4%
Refractoriness Escape [1, 8]: 0
Refractoriness Escape percentage change compared to vehicle control [1, 8]: 0%
STV [1, 8]: 0.66
Triangulation [1, 8]: 118
Triangulation percentage change compared to vehicle control [1, 8]: 3%
AMAX [1, 9]: 110
AMAX percentage change compared to vehicle control [1, 9]: 2%
APD30 [1, 9]: 115
APD30 percentage change compared to vehicle control [1, 9]: -1%
APD50 [1, 9]: 161
APD50 percentage change compared to vehicle control [1, 9]: 2%
APD90 [1, 9]: 238
APD90 percentage change compared to vehicle control [1, 9]: 3%
Alternans [1, 9]: 0.83
Alternans percentage change compared to vehicle control [1, 9]: -4%
Beat Escape [1, 9]: 0
Beat Escape percentage change compared to vehicle control [1, 9]: 0%
EADs [1, 9]: 0
EADs percentage change compared to vehicle control [1, 9]: 0%
ERP [1, 9]: 0.48
ERP percentage change compared to vehicle control [1, 9]: 7%
Max Dispersion [1, 9]: 2.88
Max Dispersion percentage change compared to vehicle control [1, 9]: -18%
RMP [1, 9]: -88
RMP percentage change compared to vehicle control [1, 9]: 3%
Refractoriness Escape [1, 9]: 0
Refractoriness Escape percentage change compared to vehicle control [1, 9]: 0%
STV [1, 9]: 0.63
Triangulation [1, 9]: 123
Triangulation percentage change compared to vehicle control [1, 9]: 8%
AMAX [1, 10]: 108
AMAX percentage change compared to vehicle control [1, 10]: 0%
APD30 [1, 10]: 115
APD30 percentage change compared to vehicle control [1, 10]: -1%
APD50 [1, 10]: 165
APD50 percentage change compared to vehicle control [1, 10]: 5%
APD90 [1, 10]: 258
APD90 percentage change compared to vehicle control [1, 10]: 12%
Alternans [1, 10]: 0.78
Alternans percentage change compared to vehicle control [1, 10]: -10%
Beat Escape [1, 10]: 0
Beat Escape percentage change compared to vehicle control [1, 10]: 0%
EADs [1, 10]: 0
EADs percentage change compared to vehicle control [1, 10]: 0%
ERP [1, 10]: 0.50
ERP percentage change compared to vehicle control [1, 10]: 11%
Max Dispersion [1, 10]: 2.72
Max Dispersion percentage change compared to vehicle control [1, 10]: -23%
RMP [1, 10]: -87
RMP percentage change compared to vehicle control [1, 10]: 2%
Refractoriness Escape [1, 10]: 0
Refractoriness Escape percentage change compared to vehicle control [1, 10]: 0%
STV [1, 10]: 0.55
Triangulation [1, 10]: 142
Triangulation percentage change compared to vehicle control [1, 10]: 26%
Free ETPC [2]: 0.006 µM
